Assays:
[1] = tested on: liver tissues; experiment: In-vivo toxicity study (compounds only), liver histopathology (H&E, Masson trichrome); design: key to fibrosis score in liver sections (safety profile): F0 = no fibrosis; F1 = mild/moderate; F2 = significant; F3 = advanced fibrosis; F4 = cirrhosis; details: compound only, 25 mg/kg p.o. 14 days; for fibrosis score in liver sections (safety profile): Masson trichrome, METAVIR; for lobular inflammation in liver sections (safety profile): H&E, noted less frequently in Cpd 2b
Description: (§1) Rats were divided into eleven groups, with seven rats in each group. Group I, the control group, received corn oil (1 ml/kg body weight, i.p.) every 72 h for 14 days. Group II, the hepatotoxicity group, received CCl4 (1 ml/kg body weight, a 1:1 v/v mixture of CCl4 and corn oil, i.p.) every 72 h for 14 days. Groups III–VI, the treated groups, received compounds (1a, 1b, 2a, and 2b), respectively, (25 mg/kg body weight, suspended in 0.5% CMC, p.o.) every 24 h, as well as CCl4 (1 ml/kg body weight, a 1:1 v/v mixture of CCl4 and corn oil, i.p.) every 72 h for 14 days. Group VII, the positive control group, received silymarin (100 mg/kg, suspended in 0.5% CMC, p.o.) every 24 h, as well as CCl4 (1 ml/kg body weight, a 1:1 v/v mixture of CCl4 and corn oil, i.p.) every 72 h for 14 days. Groups VIII–XI, the safety profile groups, received only compounds (1a, 1b, 2a, and 2b), respectively, (25 mg/kg, suspended in 0.5% CMC, p.o.) every 24 h for 14 days.
(§2) Rats were euthanized 24 h after the last dose of treatment with an inhaled overdose of isoflurane. Blood was extracted through a cardiac puncture, left for coagulation, and the serum was obtained by centrifugation for 10 min at 5000 rpm (GBF501, Centrifuge Cencom-II, Selecta). Livers were collected, then dissected into portions. One portion was fixed overnight in 10% buffered formalin (Adwic—El Nasr Pharmaceutical Co., Egypt) for histological examination. Another portion was homogenized, centrifuged at 10,000 rpm for 10 min, and the supernatants were collected for further investigation. Total protein content of all homogenates were determined using the Pierce™ BCA Protein Assay Kit (Catalog number: 23227, Thermo-Fisher Scientific Co., USA) following the manufacturer’s instructions. Liver tissues and homogenates were stored at − 80 °C until used.
(§3) Serial sectioning was done on the formalin-fixed liver tissues, which were then processed into paraffin blocks. Multiple serial, 5-μm-thick sections were cut and mounted on glass slides. One section was stained by H&E stain to assess the activity, while the other was stained by Masson trichrome stain to assess fibrosis. Both activity and fibrosis were assessed using a light microscope (Olympus, CX 22LED) using the METAVIR scoring system. For activity, the number of inflammatory foci (lobular necrosis) and degree of portal inflammation (piece meal necrosis) were evaluated, and then a final histological activity score was given (A0 = none, A1 = mild, A2 = moderate, and A3 = sever). Meanwhile, fibrosis assessment was done on Masson trichrome stained sections. The fibrosis scored according to a 4-tiered system (F0 = no fibrosis, F1 = mild/moderate, F2 = significant, F3 = advanced fibrosis, and F4 = cirrhosis). Other pathologic features, such as the presence or absence of steatosis and/or apoptotic hepatocytes, were assessed if present.

[2] = tested on: Human hepatoma (HepG2) cells; experiment: MTT in-vitro cytotoxicity assay on HepG2 cells; assay type: cell-based; details: HepG2, 24 h treatment, 7.8125-500 μM
Description: Human hepatoma (HepG2) cells were used to evaluate the in-vitro cytotoxicity of the newly synthesized compounds compared to tacrine as their structure-inspiring drug. The HepG2 cell line was obtained from ATCC. The cells were cultured in DMEM with high glucose, supplemented with 10% FBS, 100 U/ml penicillin, and 1% streptomycin were maintained in a 37 °C incubator with 5% CO2 in a humidified atmosphere. One day before the treatment, cells were seeded at a density of 1 × 10^4 cells/well in a sterile flat bottom 96-well tissue culture plate. After leaving the cells to adhere for 24 h, cells were treated with different concentrations (7.8125, 15.625, 31.25, 62.5, 125, 250, and 500 μM) of each compound as well as tacrine for 24 h in the 5% CO2 incubator.
Thereafter, cell viability was assessed using a 3-(4,5-dimethyl-2-thiazolyl)-2,5-diphenyl-tetrazolium bromide (MTT) assay obtained from Biobasic inc (Canada). Following the 24-h treatment period, MTT was added to the wells at a final concentration of 0.5 mg/mL, and the cells were incubated for 4 h in the dark. Subsequently, the media were carefully removed from the wells, and the formed formazan crystals were dissolved by adding 100 μL of DMSO. Absorbance readings were taken using a microplate reader (BioTek, USA), and the percentage cell viability was calculated for each condition relative to the control cells treated with the same DMSO concentration.

[3] = In-vivo toxicity study (compounds only), serum liver, lipid and kidney tests; details: compound only, 25 mg/kg p.o. every 24 h for 14 days
Description: (§4) Rats were divided into eleven groups, with seven rats in each group. Group I, the control group, received corn oil (1 ml/kg body weight, i.p.) every 72 h for 14 days. Group II, the hepatotoxicity group, received CCl4 (1 ml/kg body weight, a 1:1 v/v mixture of CCl4 and corn oil, i.p.) every 72 h for 14 days. Groups III–VI, the treated groups, received compounds (1a, 1b, 2a, and 2b), respectively, (25 mg/kg body weight, suspended in 0.5% CMC, p.o.) every 24 h, as well as CCl4 (1 ml/kg body weight, a 1:1 v/v mixture of CCl4 and corn oil, i.p.) every 72 h for 14 days. […]
(§5) Rats were euthanized 24 h after the last dose of treatment with an inhaled overdose of isoflurane. […] Total protein content of all homogenates were determined using the Pierce™ BCA Protein Assay Kit (Catalog number: 23227, Thermo-Fisher Scientific Co., USA) following the manufacturer’s instructions. […]
A variety of colorimetric serum diagnostic kits were used to assess the toxicity and hepatoprotective potential of the newly synthesized derivatives. Lipid profile parameters, including total cholesterol (TC) and triglycerides (TG), as well as kidney function tests, urea, and creatinine were measured to evaluate the toxicity profile. […]

[4] = tested on: CCl4-induced hepatotoxicity; experiment: CCl4-induced hepatotoxicity model, liver histopathology (METAVIR scoring); assay type: in vivo, Wistar albino male rats; design: key to activity grade (METAVIR): A0 = none; A1 = mild; A2 = moderate; A3 = sever; key to fibrosis score (METAVIR): F0 = no fibrosis; F1 = mild/moderate; F2 = significant; F3 = advanced fibrosis; F4 = cirrhosis; details: 14 days
Description: as §1, §2, §3

[5] = tested on: CCl4-induced hepatotoxicity; experiment: CCl4-induced hepatotoxicity model, serum liver function tests; assay type: in vivo, Wistar albino male rats; details: CCl4 1 ml/kg i.p. every 72 h + compound 25 mg/kg p.o. daily, 14 days; vs hepatotoxicity group unless stated
Description: as §1, §2
A variety of colorimetric serum diagnostic kits were used to assess the toxicity and hepatoprotective potential of the newly synthesized derivatives. Lipid profile parameters, including total cholesterol (TC) and triglycerides (TG), as well as kidney function tests, urea, and creatinine were measured to evaluate the toxicity profile. Liver function tests, including alanine transaminase (ALT), aspartate transaminase (AST), alkaline phosphatase (ALP), and total bilirubin (TBIL) were used for the assessment of both hepatotoxicity and hepatoprotective potential. All diagnostic kits were purchased from Biodiagnostics, Egypt, and were used and stored according to the manufacturer’s instructions.

[6] = tested on: CCl4-induced oxidative stress; experiment: CCl4 model, oxidative stress markers (MDA, GSH) in liver homogenates; assay type: in vivo, Wistar albino male rats; details: CCl4 + compound 25 mg/kg p.o. daily, 14 days; vs hepatotoxicity group unless stated
Description: as §1, with “Groups VIII–XI, the safety profile groups, received only compounds (1a, 1b, 2a, and 2b), respectively, (25 mg/kg, suspended in 0.5% CMC, p.o.) every 24 h for 14 days.” left out
as §5
The level of reduced glutathione (GSH) was measured in liver tissue homogenates using a colorimetric kit for GSH (Cat.No.E-BC-K030-M, Elabscience, USA). Malondialdehyde (MDA) levels were determined as thiobarbituric acid reactive substances (TBARS) in liver homogenates according to the method of Draper and Hadley.

[7] = tested on: transforming growth factor beta (TGF-β); experiment: CCl4 model, TGF-β ELISA in liver tissues; assay type: in vivo, Wistar albino male rats; details: CCl4 + compound 25 mg/kg p.o. daily, 14 days; vs hepatotoxicity group unless stated
Description: as §4, §5
(§6) The pro-inflammatory and pro-fibrotic cytokines tumor necrosis factor alpha (TNF-α) and transforming growth factor beta (TGF-β) were evaluated in liver tissues using ELISA kits (Catalog Numbers: CSB-E11987r and CSB-E04727r, CUSABIO, USA). For further investigation of the potential mechanism of action of the synthesized compounds, the levels of autophagy-related proteins, Beclin-1 (Catalog Number: CSB-EL002658RA, CUSABIO, USA) and LC3B (Catalog No. LS-F19802, Lifespan Biosciences, USA), were quantified in liver homogenates. […]

[8] = tested on: Beclin-1; experiment: CCl4 model, Beclin-1 ELISA in liver homogenates; assay type: in vivo, Wistar albino male rats; details: CCl4 + compound 25 mg/kg (silymarin 100 mg/kg) p.o. daily, 14 days
Description: as §4, §5, §6

[9] = tested on: alpha-smooth muscle actin (α-SMA) positive HSCs/myofibroblasts; experiment: CCl4 model, α-SMA immunohistochemistry of liver sections; assay type: in vivo, Wistar albino male rats; details: CCl4 + compound 25 mg/kg p.o. daily, 14 days; vs hepatotoxicity group
Description: as §1
From paraffin-embedded blocks of liver tissues, 4- to 5-μm-thick sections were cut using a semi-automated microtome. […] They were stained by alpha-smooth muscle actin (α-SMA) primary antibody (Clone 1A4, ready-to-use, mouse monoclonal antibody, Dako) using the autostainer DAKO link 48. […] Using Image J software, activated HSCs/myofibroblasts were counted in the five high power fields. […] Only cells with well-visible nuclei were counted.

[10] = tested on: tumor necrosis factor alpha (TNF-α); experiment: CCl4 model, TNF-α ELISA in liver tissues; assay type: in vivo, Wistar albino male rats; details: CCl4 + compound 25 mg/kg p.o. daily, 14 days; vs hepatotoxicity group unless stated
Description: as §4, §5, §6

[11] = tested on: LC3B; experiment: CCl4 model, LC3B ELISA in liver homogenates; assay type: in vivo, Wistar albino male rats; details: CCl4 + compound 25 mg/kg (silymarin 100 mg/kg) p.o. daily, 14 days
Description: as §4, §5, §6

[12] = CCl4 + compound 25 mg/kg p.o. daily
[13] = CCl4 + compound 25 mg/kg (silymarin 100 mg/kg) p.o. daily

Compound	fibrosis score in liver sections (safety profile) [1]	IC50 [2] [µM]	total cholesterol (safety profile) [3]	triglyceride levels (safety profile) [3]	fibrosis score (METAVIR) ([4]; CCl4 + compound 25 mg/kg (silymarin 100 mg/kg) p.o. daily, hepatotoxicity group F4)	steatosis and apoptotic cells in liver sections [4, 12]	activity grade (METAVIR) ([4]; CCl4 + compound 25 mg/kg p.o. daily, hepatotoxicity group A3)	lobular inflammation in liver sections (safety profile) [1]	improvement of liver fibrosis / architecture, in words [4, 13]	serum ALT [5]	serum AST [5]	MDA levels in liver homogenates [6]	TGF-β level in liver tissues [7]	expression of Beclin-1 protein [8]	number of α-SMA positive cells / 5 HPFs [9]	lobular and portal inflammation (activity), in words [4, 12]	TNF-α level in liver tissues [10]	expression of LC3B protein [11]
CN(C)c1ccc(-c2c3c([nH]c(=O)c2C#N)CCCC3)cc1 [Cpd 1a, 4-(4-(dimethylamino)phenyl)-1,2,5,6,7,8-hexahydro-2-oxoquinoline-3-carbonitrile]	F0	181	significantly lowering	significantly lowering	F3	Macrovesicular steatosis and apoptotic cells were still detected	A2											
N#Cc1c(-c2ccc(O)cc2)c2c([nH]c1=O)CCCC2 [Cpd 1b, 1,2,5,6,7,8-hexahydro-4-(4-hydroxyphenyl)-2-oxoquinoline-3-carbonitrile]	F0	174						mild, insignificant lobular inflammation (activity grade 1)	better improvement in fibrosis score									
CN(C)c1ccc(-c2c(C#N)c(N)nc3c2CCCC3)cc1 [Cpd 2a, 2-Amino-4-(4-(dimethylamino)phenyl)-5,6,7,8-tetrahydroquinoline-3-carbonitrile]	F0	171				No steatosis or apoptotic cells were detected			best protective effect on the liver sections	as beneficial as silymarin	as beneficial as silymarin	highly superior to compounds 1a, 1b and silymarin	better effect on decreasing the level of both cytokines relative to compounds 1a and 1b and silymarin	greater impact on inhibiting autophagy compared to the other compounds tested	better levels of significance, closely aligning with silymarin	improved markedly	better effect on decreasing the level of both cytokines relative to compounds 1a and 1b and silymarin	greater impact on inhibiting autophagy compared to the other compounds tested
N#Cc1c(N)nc2c(c1-c1ccc(O)cc1)CCCC2 [Cpd 2b, 2-Amino-5,6,7,8-tetrahydro-4-(4-hydroxyphenyl)quinoline-3-carbonitrile]	F0	169						mild, insignificant lobular inflammation (activity grade 1)	better improvement in fibrosis score	as beneficial as silymarin	as beneficial as silymarin	highly superior to compounds 1a, 1b and silymarin	better effect on decreasing the level of both cytokines relative to compounds 1a and 1b and silymarin	greater impact on inhibiting autophagy compared to the other compounds tested	better levels of significance, closely aligning with silymarin		better effect on decreasing the level of both cytokines relative to compounds 1a and 1b and silymarin	greater impact on inhibiting autophagy compared to the other compounds tested
Nc1c2c(nc3ccccc13)CCCC2 [tacrine, Tacrine, reference compound]		124																

Source: publication PMC11129499, “The hepatoprotective effect of 4-phenyltetrahydroquinolines on carbon tetrachloride induced hepatotoxicity in rats through autophagy inhibition” (Biological Research, 2024)
